Measured values: patent publication US20240018153A1, “BENZENESULFONAMIDE DERIVATIVES AND USES THEREOF” (2692372 ONTARIO, INC., priority 2020, published 2024)

Assays:
Type in all cases: cell-based
EGFR [1] = molecular target: T1, EGFR (Homo sapiens (Human), UniProt P00533); test: A549 cell lysis and immunoassay, total EGFR degradation; design: key: Y: EGFR bound in cells and EGFR degradation occurred; details: A549 cells
Description: (§1) A549 cells (ATCC) were cultured in Dulbecco's Modified Eagle's Medium (DMEM) (Wisent) supplemented with 10% FBS and 1% penicillin/streptomycin. Cells were seeded in 6-well plates at 530,000 cells/well and incubated at 37° C., 5% CO2 for 16 hours. Cells were starved in DMEM containing 1% FBS for 4 hours before they were treated with the indicated concentrations of compound or DMSO alone and incubated at 37° C., 5% CO2 for 24 hours. Prior to cell harvest and lysis, 50 ng/ml human epidermal growth factor (hEGF) (Sigma) was added to the cells and incubated at 37° C., 5% CO2 for 10 minutes. Conditioned media was discarded, and adherent cells were washed with PBS before they were scraped on ice. Cell suspensions were centrifugated at 2,000 RPM for 5 minutes at 4° C. and supernatants were discarded. Cell pellets were resuspended with 1× RIPA buffer (Millipore) and incubated on ice for 15 minutes. Protein lysates were extracted by centrifugating at 20,000 RPM for 20 minutes at 4° C. Proteins were separated and total EGFR protein levels were quantified by Simple Western Immunoassay (ProteinSimple) using the Protein Normalization Assay Module for Jess according to the manufacturer's protocol, using a protein concentration of 0.125 μg/μl and an antibody targeting EGFR (clone #EP38Y, Abcam) diluted to 1:400. Phosphorylated EGFR protein levels were quantified with the same assay using a protein concentration of 1 μg/μl and an antibody targeting pEGFR (Y1068) (Cell Signalling) diluted to 1:25. EGFR and phosphorylated EGFR levels were normalized to the Jess Protein Normalization Reagent loading control and subsequently to the DMSO control.

EGFR [2] = molecular target: T1, EGFR; test: A549 cell lysis and immunoassay, phospho-EGFR (Y1068) inhibition; design: key: X: EGFR bound and autophosphoration of EGFR inhibited in cells; details: A549 cells
Description: as §1

BTK = BTK (Homo sapiens (Human), UniProt Q06187); test: Ramos RA1 cell lysis and immunoassay, phospho-BTK (Y223) inhibition; design: key: X: BTK bound and autophosphoration of BTK inhibited in cells; details: RAMOS cells, compound concentration 1 μM
BTK, sequence (Q06187 whole entry): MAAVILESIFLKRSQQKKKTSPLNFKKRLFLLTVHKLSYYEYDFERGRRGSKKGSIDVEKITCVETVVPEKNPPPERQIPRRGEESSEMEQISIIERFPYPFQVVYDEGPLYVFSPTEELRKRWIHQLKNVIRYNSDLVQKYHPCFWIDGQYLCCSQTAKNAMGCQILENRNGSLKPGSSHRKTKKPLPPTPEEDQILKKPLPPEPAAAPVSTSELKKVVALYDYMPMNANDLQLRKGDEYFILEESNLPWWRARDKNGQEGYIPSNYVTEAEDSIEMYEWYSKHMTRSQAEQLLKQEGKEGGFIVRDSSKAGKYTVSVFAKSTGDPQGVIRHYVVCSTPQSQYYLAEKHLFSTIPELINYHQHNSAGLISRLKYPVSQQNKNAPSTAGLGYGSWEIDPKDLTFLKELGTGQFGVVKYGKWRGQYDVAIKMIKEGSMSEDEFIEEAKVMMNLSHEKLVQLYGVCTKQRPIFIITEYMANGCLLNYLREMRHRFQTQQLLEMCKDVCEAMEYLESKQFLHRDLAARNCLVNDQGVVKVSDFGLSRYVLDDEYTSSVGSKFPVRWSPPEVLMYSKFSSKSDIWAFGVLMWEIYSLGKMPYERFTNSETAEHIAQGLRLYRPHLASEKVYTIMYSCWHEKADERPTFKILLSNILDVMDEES
Description: Ramos RA 1 cells (ATCC) were cultured in RPMI-1640 media (Wisent) supplemented with 10% heat-inactivated FBS and 1% penicillin/streptomycin. Cells were seeded in 6-well plates at 1.71×10^6 cells/well and incubated at 37° C., 5% CO2 for 16 hours. Cells were treated with compound at the indicated concentrations or DMSO alone and incubated at 37° C., 5% CO2 for 24 hours. Cell suspensions were centrifugated at 1,400-1,600 RPM for 5 minutes at room temperature and supernatants were discarded. Cell pellets were resuspended with 1× RIPA buffer (Millipore) and incubated on ice for 15 minutes. Protein lysates were extracted by centrifugating at 20,000 RPM for 20 minutes at 4° C. Proteins were separated and total BTK protein levels were quantified by Simple Western Immunoassay (ProteinSimple) using the 12-230 kDa Jess Separation Module according to the manufacturer's protocol, using a protein concentration of 0.25 μg/μl and antibodies targeting BTK (clone #D3H5, Cell Signalling) and β-Actin (clone #AC-15, Santa Cruz) diluted to 1:400 and 1:10, respectively, where the latter was used as a loading control. An equal ratio of rabbit and mouse HRP-conjugated secondary antibodies was used for detection. BTK protein levels were quantified relative to S-Actin loading levels and subsequently normalized to the DMSO control. Phosphorylated BTK levels were quantified using the Protein Normalization Assay Module for Jess (ProteinSimple) according to the manufacturer's protocol, using a protein concentration of 1.5 μg/μl and an antibody targeting pBTK (Y223) (Cell Signalling) diluted to 1:50. Phosphorylated BTK levels were quantified relative to the Protein Normalization Reagent and subsequently normalized to the DMSO control.

[3] = compound concentration 10, 24 h

T1 sequence (P00533 25-1210): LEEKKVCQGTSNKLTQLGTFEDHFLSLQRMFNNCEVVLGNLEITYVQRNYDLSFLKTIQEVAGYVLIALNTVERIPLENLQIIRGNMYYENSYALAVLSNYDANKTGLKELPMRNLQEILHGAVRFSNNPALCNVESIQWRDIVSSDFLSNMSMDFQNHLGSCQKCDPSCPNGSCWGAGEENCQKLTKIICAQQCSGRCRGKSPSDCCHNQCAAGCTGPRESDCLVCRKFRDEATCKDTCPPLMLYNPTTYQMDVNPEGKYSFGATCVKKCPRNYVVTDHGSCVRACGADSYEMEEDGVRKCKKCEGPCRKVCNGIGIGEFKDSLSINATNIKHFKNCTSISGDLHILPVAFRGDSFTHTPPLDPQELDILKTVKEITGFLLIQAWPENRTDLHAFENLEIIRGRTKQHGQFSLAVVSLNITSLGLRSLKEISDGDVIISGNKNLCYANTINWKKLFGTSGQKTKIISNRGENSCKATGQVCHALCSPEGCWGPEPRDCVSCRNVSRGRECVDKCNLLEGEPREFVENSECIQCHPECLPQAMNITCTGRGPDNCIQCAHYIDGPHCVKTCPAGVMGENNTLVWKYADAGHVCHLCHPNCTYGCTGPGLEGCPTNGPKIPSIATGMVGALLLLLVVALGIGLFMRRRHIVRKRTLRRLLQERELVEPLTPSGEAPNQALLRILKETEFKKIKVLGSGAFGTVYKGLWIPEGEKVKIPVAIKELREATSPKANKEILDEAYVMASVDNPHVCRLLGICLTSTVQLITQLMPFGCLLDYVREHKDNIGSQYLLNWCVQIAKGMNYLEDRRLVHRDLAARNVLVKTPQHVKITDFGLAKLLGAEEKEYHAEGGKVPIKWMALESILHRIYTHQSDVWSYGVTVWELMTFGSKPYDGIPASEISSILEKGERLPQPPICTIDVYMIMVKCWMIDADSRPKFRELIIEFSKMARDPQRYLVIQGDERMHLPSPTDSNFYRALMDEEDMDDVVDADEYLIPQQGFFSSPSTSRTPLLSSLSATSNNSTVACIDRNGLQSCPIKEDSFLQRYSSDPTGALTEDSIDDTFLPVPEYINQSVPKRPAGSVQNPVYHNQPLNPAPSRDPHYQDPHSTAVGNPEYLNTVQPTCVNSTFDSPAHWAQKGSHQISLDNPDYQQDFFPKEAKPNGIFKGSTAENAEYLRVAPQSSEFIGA

SMILES	EGFR degradation (A549, 1 μM, 24 h) (EGFR [1])	EGFR degradation (A549, compound concentration, 24 h) (EGFR [1]; [3])	pEGFR inhibition (A549, 1 μM, 24 h) (EGFR [2])	pEGFR inhibition (A549, compound concentration, 24 h) (EGFR [2]; compound concentration 10 μM)	pBTK inhibition (RAMOS, 24 h) (BTK)	EGFR degradation (A549, compound concentration, 24 h) (EGFR [1]; compound concentration 5, 24 h)	pEGFR inhibition (A549, compound concentration, 24 h) (EGFR [2]; compound concentration 5 μM)
C[S@+]([O-])c1c(F)c(F)c(F)c(F)c1C(=O)Nc1ncnc2[nH]ccc12 (racemic) [Compound I-46, 2,3,4,5-tetrafluoro-6-(methylsulfinyl)-N-(7H-pyrrolo[2,3-d]pyrimidin-4-yl)benzamide]	Y	Y	X	X	X	–	–
COCCOc1ccc(Nc2ncc(F)c(Nc3cccc(NC(=O)c4c(F)c(F)c(F)c(F)c4[S@+](C)[O-])c3)n2)cc1 (stereo in doubt) [Compound I-62, 2,3,4,5-tetrafluoro-N-(3-((5-fluoro-2-((4-(2-methoxyethoxy)phenyl)amino)pyrimidin-4-yl)amino)phenyl)-6-(methylsulfinyl)benzamide]	Y	Y	X	–	X	–	–
COCCOc1ccc(Nc2ncc(F)c(Nc3cccc(Nc4c(F)c(F)c(F)c(F)c4[S@+](C)[O-])c3)n2)cc1 (stereo in doubt) [Compound I-63, 5-fluoro-N^2-(4-(2-methoxyethoxy)phenyl)-N^4-(3-((2,3,4,5-tetrafluoro-6-(methylsulfinyl)phenyl)amino)phenyl)pyrimidine-2,4-diamine]	Y	Y	X	X	X	–	–
CS(=O)(=O)c1c(F)c(F)c(F)c(F)c1C(=O)Nc1cc2c(Nc3ccc(F)c(Cl)c3)ncnc2cc1O[C@H]1CCOC1 [Compound I-5, (S)—N-(4-((3-chloro-4-fluorophenyl)amino)-7-((tetrahydrofuran-3-yl)oxy)quinazolin-6-yl)-2,3,4,5-tetrafluoro-6-(methylsulfonyl)benzamide]	Y	Y	X	X	X	–	–
Nc1ncnc2c1c(-c1ccc(Oc3ccccc3)cc1)nn2[C@@H]1CCN(S(=O)(=O)c2c(F)c(F)c(F)c(F)c2OCF)C1 [Compound I-24, (R)-3-(4-phenoxyphenyl)-1-(1-((2,3,4,5-tetrafluoro-6-(fluoromethoxy)phenyl)sulfonyl)pyrrolidin-3-yl)-1H-pyrazolo[3,4-d]pyrimidin-4-amine]	–	–	–	–	X	–	–
CN(CCn1nc(-c2ccc(Oc3ccccc3)cc2)c2c(N)ncnc21)C(=O)c1c(F)c(F)c(F)c(F)c1S(N)(=O)=O [Compound I-33, N-(2-(4-amino-3-(4-phenoxyphenyl)-1H-pyrazolo[3,4-d]pyrimidin-1-yl)ethyl)-2,3,4,5-tetrafluoro-N-methyl-6-sulfamoylbenzamide]	Y	Y	X	X	X	–	–
Nc1ncnc2c1c(-c1ccc(Oc3ccccc3)cc1)nn2CCCNC(=O)c1c(F)c(F)c(F)c(F)c1S(N)(=O)=O [Compound I-34, N-(3-(4-amino-3-(4-phenoxyphenyl)-1H-pyrazolo[3,4-d]pyrimidin-1-yl)propyl)-2,3,4,5-tetrafluoro-6-sulfamoylbenzamide]	Y	Y	X	–	X	–	–
C[S+]([O-])c1c(F)c(F)c(F)c(F)c1C(=O)N1CCC[C@@H](n2nc(-c3ccc(Oc4ccccc4)cc3)c3c(N)ncnc32)C1 (stereo partly drawn) [Compound I-36, ((R)-3-(4-amino-3-(4-phenoxyphenyl)-1H-pyrazolo[3,4-d]pyrimidin-1-yl)piperidin-1-yl)(2,3,4,5-tetrafluoro-6-(methylsulfinyl)phenyl)methanone]	Y	Y	X	X	X	–	–
CS(=O)(=O)c1c(F)c(F)c(F)c(F)c1C(=O)NCCn1nc(-c2ccc(Oc3ccccc3)cc2)c2c(N)ncnc21 [Compound I-38, N-(2-(4-amino-3-(4-phenoxyphenyl)-1H-pyrazolo[3,4-d]pyrimidin-1-yl)ethyl)-2,3,4,5-tetrafluoro-6-(methylsulfonyl)benzamide]	Y	Y	X	–	X	–	–
CS(=O)(=O)c1c(F)c(F)c(F)c(F)c1C(=O)NCCCn1nc(-c2ccc(Oc3ccccc3)cc2)c2c(N)ncnc21 [Compound I-39, N-(3-(4-amino-3-(4-phenoxyphenyl)-1H-pyrazolo[3,4-d]pyrimidin-1-yl)propyl)-2,3,4,5-tetrafluoro-6-(methylsulfonyl)benzamide]	Y	–	X	–	X	Y	X
CN(C)S(=O)(=O)c1c(F)c(F)c(F)c(F)c1C(=O)NCCn1nc(-c2ccc(Oc3ccccc3)cc2)c2c(N)ncnc21 [Compound I-40, N-(2-(4-amino-3-(4-phenoxyphenyl)-1H-pyrazolo[3,4-d]pyrimidin-1-yl)ethyl)-2-(N,N-dimethylsulfamoyl)-3,4,5,6-tetrafluorobenzamide]	–	–	X	–	X	Y	X
CN(C)S(=O)(=O)c1c(F)c(F)c(F)c(F)c1C(=O)NCCCn1nc(-c2ccc(Oc3ccccc3)cc2)c2c(N)ncnc21 [Compound I-41, N-(3-(4-amino-3-(4-phenoxyphenyl)-1H-pyrazolo[3,4-d]pyrimidin-1-yl)propyl)-2-(N,N-dimethylsulfamoyl)-3,4,5,6-tetrafluorobenzamide]	Y	–	X	–	X	Y	–
CN(C)S(=O)(=O)c1c(F)c(F)c(F)c(F)c1C(=O)NCCNc1ncnc2[nH]ccc12 [Compound I-47, N-(2-((7H-pyrrolo[2,3-d]pyrimidin-4-yl)amino)ethyl)-2-(N,N-dimethylsulfamoyl)-3,4,5,6-tetrafluorobenzamide]	Y	Y	X	–	–	–	–
NS(=O)(=O)c1c(F)c(F)c(F)c(F)c1C(=O)NCCNc1ncnc2[nH]ccc12 [Compound I-48]	Y	Y	X	X	–	–	–
